Assays:
Assay in all cases: Minimum Inhibitory Concentration, serial dilution on DST agar
Assay type in all cases: cell-based
[1] = test system: B. subtilis; details: DST agar + 10% horse blood, 0.001 ml of 10^-2 dilution (Gram-positive), 37° C., 18 h; for MIC: Bacillus subtilis
Experimental: (§1) ^a Determined by serial dilution on DST agar containing 10% horse
(§2) blood using an inoculum of 0.001 ml of a 10^-2 dilution for
(§3) Grampositive bacteria or a 10^-4 dilution for Gramnegative organisms.
(§4) MIC values were read after incubation at 37° C. for 18 h.

[2] = test system: E. coli; details: DST agar + 10% horse blood, 0.001 ml of 10^-4 dilution (Gram-negative), 37° C., 18 h; for MIC: Escherichia coli
Experimental: as §1, §2, §3, §4

[3] = test system: Klebsiella aerogenes; details: DST agar + 10% horse blood, 0.001 ml of 10^-4 dilution (Gram-negative), 37° C., 18 h
Experimental: as §1, §2, §3, §4

[4] = test system: Proteus mirabilis; details: DST agar + 10% horse blood, 0.001 ml of 10^-4 dilution (Gram-negative), 37° C., 18 h
Experimental: as §1, §2, §3, §4

[5] = test system: S. typhimurium; details: DST agar + 10% horse blood, 0.001 ml of 10^-4 dilution (Gram-negative), 37° C., 18 h; for MIC: Salmonella enterica
Experimental: as §1, §2, §3, §4

[6] = test system: Staph. aureus Oxford; details: DST agar + 10% horse blood, 0.001 ml of 10^-2 dilution (Gram-positive), 37° C., 18 h; for MIC: Staphylococcus aureus
Experimental: as §1, §2, §3, §4

[7] = test system: Strep. faecalis; details: DST agar + 10% horse blood, 0.001 ml of 10^-2 dilution (Gram-positive), 37° C., 18 h
Experimental: as §1, §2, §3, §4

[8] = test system: Strep. pneumoniae; details: DST agar + 10% horse blood, 0.001 ml of 10^-2 dilution (Gram-positive), 37° C., 18 h
Experimental: as §1, §2, §3, §4

[9] = test system: Staph. aureus Russell; details: lactamase-producing benzylpenicillin-resistant strain, DST agar + 10% horse blood, 0.001 ml of 10^-2 dilution (Gram-positive), 37° C., 18 h; for MIC: Staphylococcus aureus
Experimental: as §1, §2, §3, §4
^b Lactamase-producing benzylpenicillinresistant strain.

## COC(=O)C1=C[C@@H]2[C@H](NC(=O)[C@H](N)c3ccccc3)C(=O)N2[C@H]1C(=O)O.Cc1ccc(N)cc1 (racemic) [(48), (2RS, 5RS, 6SR) 1-Aza-3-methoxycarbonyl-6-D-α-phenylglycylamino-bicyclo-[3.2.0]-hept-3-en-7-one-2-carboxylic acid, p-toluidine salt]
[1]
  Minimum Inhibitory Concentration: 1.2 µg/mL
[2]
  Minimum Inhibitory Concentration: 50 µg/mL
[3]
  Minimum Inhibitory Concentration: 50 µg/mL
[4]
  Minimum Inhibitory Concentration: 25 µg/mL
[5]
  Minimum Inhibitory Concentration: 12.5 µg/mL
[6]
  Minimum Inhibitory Concentration: 12.5 µg/mL
[7]
  Minimum Inhibitory Concentration: 12.5 µg/mL
[8]
  Minimum Inhibitory Concentration: 0.5 µg/mL
[9]
  Minimum Inhibitory Concentration: > 50 µg/mL

## COC(=O)C1=C[C@@H]2[C@H](NC(=O)C(C(=O)OCc3ccccc3)c3ccccc3)C(=O)N2[C@H]1C(=O)O.Cc1ccc(N)cc1 (mixture of isomers) [(54), (2RS, 5RS, 6SR) 1-Aza-6-(DL-α-benzyloxycarbonyl-phenylacetamido)-3-methoxycarbonylbicyclo [3.2.0]-hept-3-en-7-one-2-carboxylic acid, p-toluidine salt]
[1]
  Minimum Inhibitory Concentration: 25 µg/mL
[2]
  Minimum Inhibitory Concentration: > 100 µg/mL
[3]
  Minimum Inhibitory Concentration: 100 µg/mL
[4]
  Minimum Inhibitory Concentration: > 100 µg/mL
[5]
  Minimum Inhibitory Concentration: 100 µg/mL
[6]
  Minimum Inhibitory Concentration: > 100 µg/mL
[7]
  Minimum Inhibitory Concentration: > 100 µg/mL
[8]
  Minimum Inhibitory Concentration: 10 µg/mL
[9]
  Minimum Inhibitory Concentration: > 100 µg/mL

## COC(=O)C1=C[C@@H]2[C@H](NC(=O)COc3ccccc3)C(=O)N2[C@H]1C(=O)O (relative stereo) [(39), (2RS, 5RS, 6SR) Sodium 1-aza-3-methoxycarbonyl-6-phenoxyacetamido-bicyclo-[3.2.0]-hept-3-en-7-one-2-carboxylate]
[1]
  MIC: 1 µg/mL
[2]
  MIC: > 100 µg/mL
[3]
  MIC: > 100 µg/mL
[4]
  MIC: > 100 µg/mL
[5]
  MIC: > 100 µg/mL
[6]
  MIC: 2.5 µg/mL
[9]
  MIC: > 100 µg/mL

## N#CC1=C[C@@H]2[C@H](NC(=O)COc3ccccc3)C(=O)N2[C@H]1C(=O)O (relative stereo) [(57)]
[1]
  MIC: 2.5 µg/mL
[2]
  MIC: > 50 µg/mL
[3]
  MIC: > 50 µg/mL
[4]
  MIC: > 50 µg/mL
[5]
  MIC: > 50 µg/mL
[6]
  MIC: 5 µg/mL
[7]; Enterococcus faecalis
  MIC: > 50 µg/mL
[8]; Streptococcus pneumoniae
  MIC: 1.2 µg/mL
[9]
  MIC: 50 µg/mL

— US4407815A, “β-Lactam antibacterial compounds, their preparation and pharmaceutical compositions containing them” (Beecham Group Limited, priority 1980, dated 1983)
